Source: publication PMC7181245, “Antiestrogenic Activity and Possible Mode of Action of Certain New Nonsteroidal Coumarin-4-acetamides” (Molecules, 2020)
Like-named read-outs stand apart in the source and are kept apart here.

Assays:
[1] = system: MDA-MB-231 (triple-negative breast cancer cell line, TNBC); experiment: MTT cytotoxicity assay, MDA-MB-231 cell line
Description: (§1) The cytotoxic activity of the synthesized compounds IIIa–h was evaluated in vitro against the human breast adenocarcinoma MCF7 (ER^+ breast cancer cell line) and the MDA-MB-231 (triple-negative breast cancer cell line, TNBC), using camptothecin as a pyranone-bearing reference standard.
(§2) The cytotoxicity of compounds Ia,b, IIa,b, and IIIa–h against the MCF-7 cell line (ER+ breast cancer cell line) and MDA-MB-231 (triple-negative breast cancer cell line, TNBC) was determined using camptothecin as a pyranone-bearing reference standard.

[2] = system: MCF-7 cell line (ER+ breast cancer cell line); experiment: MTT cytotoxicity assay, MCF-7 cell line; conditions: for IC50: Homo sapiens, MCF7, read-out: IC50 (μM) ± S.E.M MCF-7 (cytotoxicity)
Description: as §1, §2

[3] = molecular target: T1, aromatase (Homo sapiens, UniProt P11511); experiment: In vitro aromatase inhibition (sandwich enzyme immunoassay); conditions: for IC50: IC50 (μM) ± S.E.M. (aromatase inhibition activity)
T1 sequence (P11511 1-503): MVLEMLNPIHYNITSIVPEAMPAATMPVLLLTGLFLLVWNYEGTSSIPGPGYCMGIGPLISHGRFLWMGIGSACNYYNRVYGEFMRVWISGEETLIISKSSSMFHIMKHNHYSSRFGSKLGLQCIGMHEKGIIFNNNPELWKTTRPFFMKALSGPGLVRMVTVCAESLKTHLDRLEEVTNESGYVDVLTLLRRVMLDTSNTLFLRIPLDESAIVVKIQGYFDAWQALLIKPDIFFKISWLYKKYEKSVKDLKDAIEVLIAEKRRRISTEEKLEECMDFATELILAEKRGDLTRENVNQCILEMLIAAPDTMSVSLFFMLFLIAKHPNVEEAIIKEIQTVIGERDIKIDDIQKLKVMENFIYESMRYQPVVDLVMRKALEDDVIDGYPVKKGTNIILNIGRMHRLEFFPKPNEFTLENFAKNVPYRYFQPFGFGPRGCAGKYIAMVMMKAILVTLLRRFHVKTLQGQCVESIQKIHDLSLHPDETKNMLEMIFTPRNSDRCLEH
Description: Sandwich enzyme immunoassay was adopted for aromatase inhibition assessment [38].

[4] = system: estrogen-dependent human breast cancer MCF-7 cell proliferation induced by 17-β-estradiol; experiment: In vitro antiestrogenic activity: MCF-7 cell proliferation assay (MTT) in the presence of 17-β-estradiol; format: cell-based; conditions: inhibition of MCF-7 cell proliferation induced by 17-β-estradiol, read-out: IC50 (μM) ± S.E.M. MCF-7 (in vitro antiestrogenic activity)
Description: The in vitro antiestrogenic activity of the selected target compounds IIIa,b, IIId, and IIIf,g was studied through an estrogen-dependent human breast cancer MCF-7 cell proliferation assay in the presence of 17-β-estradiol. The ability of the tested compounds to inhibit cell proliferation induced by 17-β-estradiol was determined (Table 3 and Figure 4).
The antiestrogenic activity of the test compounds was examined by performing a 3-(4,5-dimethylthiazol-2-yl)-2,5-diphenyl tetrazolium bromide (MTT) assay of the MCF-7 cell line. In this experiment, MCF-7 cells were treated with 17β-estradiol (+ve cell proliferation compound). The effect of various concentrations of the tested compounds on cell proliferation in the presence of 17β-estradiol was measured.

[5] = system: MCF-7; design: method as in PMID 9391160, PMID 15177442; conditions: cited from earlier work
[6] = Homo sapiens, MDA-MB-231, read-out: IC50 (μM) ± S.E.M MDA-MB-231 (cytotoxicity), MTT assay, MDA-MB-231 cells
[7] = ratio of IC50 values vs camptothecin

Row | melting point | IC50 [3] | IC50 ([4]; Homo sapiens, MCF7) | Compound | IC50 [1, 6] | IC50 [2] | other results
1 | 135 to 136 °C | 89.1 ± 6.2 µM | 29.5 ± 3.25 µM | COc1ccc2c(CC(=O)N3CCCCC3)cc(=O)oc2c1 [IIIb, 7-Methoxy-4-(2-oxo-2-(piperidin-1-yl)ethyl)-2H-chromen-2-one] | 12.9 ± 1.17 µM | 0.32 ± 0.04 µM | potency relative to the reference standard camptothecin, MCF-7 [2, 7]: about 14 fold
2 | 219 to 220 °C | 1100 ± 52.4 µM | – | COc1ccc2oc(=O)cc(CC(=O)Nc3ccccc3)c2c1 [IIIc, 2-(6-Methoxy-2-oxo-2H-chromen-4-yl)-N-phenylacetamide] | 4.6 ± 0.32 µM | 10.9 ± 0.99 µM | –
3 | 202 to 203 °C | 69.9 ± 3.91 µM | 214 ± 12.1 µM | COc1ccc2oc(=O)cc(CC(=O)Nc3ccc(Br)cc3)c2c1 [IIId, N-(4-Bromophenyl)-2-(6-methoxy-2-oxo-2H-chromen-4-yl)acetamide] | 22.8 ± 1.54 µM | 2.8 ± 0.04 µM | –
4 | 217 to 218 °C | 332 ± 18.2 µM | 99.6 ± 6.39 µM | COc1ccc2c(CC(=O)Nc3ccccc3)cc(=O)oc2c1 [IIIf, 2-(7-Methoxy-2-oxo-2H-chromen-4-yl)-N-phenylacetamide] | 6.9 µM | 5.69 ± 0.08 µM | IC50 ([1]; human): 6.94 ± 0.41 µM
5 | 212 to 213 °C | 27.1 ± 1.38 µM | 64.4 ± 4.12 µM | COc1ccc2c(CC(=O)Nc3ccc(Br)cc3)cc(=O)oc2c1 [IIIg, N-(4-Bromophenyl)-2-(7-methoxy-2-oxo-2H-chromen-4-yl)acetamide] | 90.8 ± 3.84 µM | 0.72 ± 0.02 µM | –
6 | 178 to 179 °C | 32.2 ± 2.39 µM | – | COc1ccc2oc(=O)cc(CC(=O)O)c2c1 [IIa, (6-Methoxy-2-oxo-2H-chromen-4-yl)acetic acid] | 80.2 ± 4.23 µM | 1 ± 0.03 µM | –
7 | – | 14.5 ± 1.32 µM | – | COC(=O)Cc1cc(=O)oc2cc(OC)ccc12 [Ib, Methyl (7-methoxy-2-oxo-2H-chromen-4-yl)acetate] | 1 ± 0.04 µM | 1.44 ± 0.02 µM | potency relative to the reference standard camptothecin, MDA-MB-231 [1, 7]: about 19 times

Second part, the compound before the results:

Row | Compound | melting point | IC50 [3] | IC50 ([4]; Homo sapiens, MCF7) | IC50 [1, 6] | IC50 [2] | other results
8 | CC[C@@]1(O)C(=O)OCc2c1cc1n(c2=O)Cc2cc3ccccc3nc2-1 [Camptothecin, reference compound] | – | – | – | 19.2 ± 1.14 µM | 4.41 ± 0.28 µM | –
9 | COc1ccc2oc(=O)cc(CC(=O)N3CCCCC3)c2c1 [IIIa, 6-Methoxy-4-(2-oxo-2-(piperidin-1-yl)ethyl)-2H-chromen-2-one] | 167 to 168 °C | 22.5 ± 3.4 µM | 62 ± 4.02 µM | 38.2 ± 1.52 µM | 1.82 ± 0.03 µM | –
10 | COc1ccc2oc(=O)cc(CC(=O)Nc3ccc(OC)c(O)c3)c2c1 [IIIe, N-(3-Hydroxy-4-methoxyphenyl)-2-(6-methoxy-2-oxo-2H-chromen-4-yl)acetamide] | 173 to 174 °C | 17.4 µM | – | 2.1 µM | 15.5 ± 1.24 µM | aromatase inhibition activity (in words) [3]: moderate inhibitory activity; IC50 ([1]; human): 2.14 ± 0.06 µM
11 | COc1ccc2c(CC(=O)Nc3ccc(OC)c(O)c3)cc(=O)oc2c1 [IIIh, N-(3-Hydroxy-4-methoxyphenyl)-2-(7-methoxy-2-oxo-2H-chromen-4-yl)acetamide] | 188 to 189 °C | – | – | 14.1 ± 0.61 µM | 5100 ± 241 µM | –
12 | COc1ccc2c(CC(=O)O)cc(=O)oc2c1 [IIb, (7-methoxy-2-oxo-2H-chromen-4-yl)acetic acid] | – | – | – | 216 ± 13.2 µM | 8.08 ± 0.25 µM | –
13 | COC(=O)Cc1cc(=O)oc2ccc(OC)cc12 [Ia, Methyl (6-methoxy-2-oxo-2H-chromen-4-yl)acetate] | 153 to 154 °C | – | – | 47.5 ± 2.51 µM | 13.9 ± 1.15 µM | –
14 | CC(C)COC(=O)c1ccccc1C(=O)O [Monoisobutyl phthalate (MIBP), Monoisobutyl phthalate, reference compound] | – | – | – | – | – | IC50 [4]: 46.4 ± 3.14 µM
15 | O=c1oc2cc(O)ccc2c(Cc2ccc(OCCN3CCCCC3)cc2)c1-c1ccccc1 [SP500263] | – | – | – | – | – | agonist activity in the MCF-7 proliferation assay [5]: undesirable agonist activity
